Experimental data from ChEMBL document CHEMBL4613242, “Thiopeptide Defense by an Ant's Bacterial Symbiont” (2020).

What was measured:
Format in all cases: functional
Trichoderma harzianum = test: Antimicrobial activity against Trichoderma harzianum T22 at 0.1 ug measured on day 5 by agar diffusion assay; conditions: T22, 120 h, read-out: DIZ
Pseudonocardia [1] = test: Antimicrobial activity against Pseudonocardia 17SM-1 at 0.1 ug measured on day 5 by agar diffusion assay; conditions: 17SM-1, 120 h, read-out: DIZ
Pseudonocardia [2] = test: Antimicrobial activity against Pseudonocardia 18AZ-4 at 0.1 ug measured on day 5 by agar diffusion assay; conditions: 18AZ-4, 120 h, read-out: DIZ
Candida albicans = test: Antimicrobial activity against Candida albicans SC5314 at 0.1 ug measured at 24 hrs by agar diffusion assay; conditions: SC5314, 24 h, read-out: DIZ
Pseudonocardia [3] = test: Antimicrobial activity against Pseudonocardia PLR1 at 0.1 ug measured on day 5 by agar diffusion assay; conditions: PLR1, 120 h, read-out: DIZ
Pseudonocardia [4] = test: Antimicrobial activity against Pseudonocardia 17SE-8 at 0.1 ug measured on day 5 by agar diffusion assay; conditions: 17SE-8, 120 h, read-out: DIZ
Escovopsis sp. = test: Antimicrobial activity against Escovopsis sp. at 0.1 ug measured on day 5 by agar diffusion assay; conditions: 120 h, read-out: DIZ
Pseudonocardia [5] = test: Antimicrobial activity against Pseudonocardia 17SE-10 at 0.1 ug measured on day 5 by agar diffusion assay; conditions: 17SE-10, 120 h, read-out: DIZ
Bacillus subtilis = test: Antimicrobial activity against Bacillus subtilis 3610 at 0.1 ug measured at 24 hrs by agar diffusion assay; conditions: Bacillus subtilis, 3610, 24 h; read-out: DIZ
Pseudonocardia [6] = test: Antimicrobial activity against Pseudonocardia 17SE-9 at 0.1 ug measured on day 5 by agar diffusion assay; conditions: 17SE-9, 120 h, read-out: DIZ
Pseudonocardia [7] = test: Antimicrobial activity against Pseudonocardia 18PO-3 at 0.1 ug measured on day 5 by agar diffusion assay; conditions: 18PO-3, 120 h, read-out: DIZ

C=C(NC(=O)C(=C)NC(=O)c1csc(-c2ccc3c(n2)-c2csc(n2)-c2csc(n2)[C@@H]2C(C)C[C@H](O)N2C(=O)[C@H](Cc2ccc(O)cc2)NC(=O)C2CSC(=N2)[C@H](Cc2ccccc2)NC(=O)c2csc(n2)[C@H](CC(N)=O)NC(=O)c2nc-3oc2C)n1)C(=O)O (stereo partly specified)
zone of inhibition at 0.1 µg/disc (Trichoderma harzianum): 0 mm | zone of inhibition at 0.1 µg/disc (Pseudonocardia [1]): 28.3 mm | zone of inhibition at 0.1 µg/disc (Pseudonocardia [2]): 23 mm | zone of inhibition at 0.1 µg/disc (Candida albicans): 0 mm | zone of inhibition at 0.1 µg/disc (Pseudonocardia [3]): 18 mm | zone of inhibition at 0.1 µg/disc (Pseudonocardia [4]): 18.7 mm | zone of inhibition at 0.1 µg/disc (Escovopsis sp.): 0 mm | zone of inhibition at 0.1 µg/disc (Pseudonocardia [5]): 13.7 mm | zone of inhibition at 0.1 µg/disc (Bacillus subtilis): 9.7 mm | zone of inhibition at 0.1 µg/disc (Pseudonocardia [6]): 0 mm | zone of inhibition at 0.1 µg/disc (Pseudonocardia [7]): 20 mm
